{"source": "ChEMBL document CHEMBL5390201", "about": "“The Natural Alkaloid (-)-N-Hydroxyapiosporamide Suppresses Colorectal Tumor Progression as an NF-κB Pathway Inhibitor by Targeting the TAK1-TRAF6 Complex” (J Nat Prod, 2023)", "key": {"[1]": {"tested_on": "HT-29", "assay": "Induction of apoptosis in human HT-29 cells assessed as early apoptotic cells at 10 uM incubated for 24 hrs by Annexin V-FITC/PI staining based flow cytometric analysis (reference value: 5.29 %)", "type": "functional"}, "[2]": {"tested_on": "HCT-116", "assay": "Induction of apoptosis in human HCT-116 cells assessed as late apoptotic cells at 5 uM incubated for 24 hrs by Annexin V-FITC/PI staining based flow cytometric analysis (reference value: 2.9 %)", "type": "functional"}, "[3]": {"tested_on": "Mus musculus", "assay": "In vivo inhibition of NFkappaB activation in athymic BALB/c mouse xenografted with human HCT-116 cells assessed as reduction in A20 gene expression in tumor at 15 mg/kg, ip administered every other day and measured after 14 days by qRT-PCR analysis", "type": "functional, organism-based", "settings": "time 14.0 day"}, "[4]": {"tested_on": "HT-29", "assay": "Induction of cell death in human HT-29 cells at 0.5 to 10 uM pretreated with Z-VAD-FMK for 1 hr followed by compound addition and measured after 24 hrs by SRB assay", "type": "functional, cell-based", "settings": "dose 0.5-10 µM"}, "[5]": {"tested_on": "HCT-116", "assay": "Induction of cell cycle arrest in human HCT-116 cells assessed as decrease in cyclin B protein expression upto 10 uM incubated for 24 hrs by Western blot analysis", "type": "functional, cell-based"}, "[6]": {"tested_on": "HT-29", "assay": "Induction of cell cycle arrest in human HT-29 cells assessed as accumulation of cells at G2/M phase at 5 uM by RNase/PI staining based flow cytometry analysis (reference value: 9.93 %)", "type": "functional"}, "[7]": {"tested_on": "HCT-116", "assay": "Induction of apoptosis in human HCT-116 cells assessed as early apoptotic cells at 0.5 uM incubated for 24 hrs by Annexin V-FITC/PI staining based flow cytometric analysis (reference value: 7.22 %)", "type": "functional"}, "[8]": {"tested_on": "HCT-116", "assay": "Induction of autophagy in human HCT-116 cells transfected with GFP-LC3 assessed as increase in LC3 dot puncta at 1 to 10 uM incubated for 24 hrs by fluorescence microscopy", "type": "functional, cell-based", "settings": "dose 1-10 µM"}, "[9]": {"tested_on": "HT-29", "assay": "Induction of autophagy in human HT-29 cells transfected with GFP-LC3 assessed as increase in LC3 dot puncta at 1 to 10 uM incubated for 24 hrs by fluorescence microscopy", "type": "functional, cell-based", "settings": "dose 1-10 µM"}, "[10]": {"tested_on": "HCT-116", "assay": "Induction of apoptosis in human HCT-116 cells assessed as viable cells at 5 uM preincubated with Z-VAD-FMK for 1 hr followed by compound addition and measured after 24 hrs by Annexin V-FITC/PI staining based flow cytometric analysis (reference value: 85.5 %)", "type": "functional", "settings": "read-out: Activity"}, "[11]": {"tested_on": "HCT-116", "assay": "Antitumor activity against human HCT-116 cells xenografted in athymic nude BALB/c mouse assessed as induction of apoptosis by measuring increase in cleaved caspase 3 expression in tumor at 15 mg/kg, ip administered every other day and measured after 14 days by immunohistochemistry analysis", "type": "functional, organism-based", "settings": "time 14.0 day"}, "[12]": {"assay": "Toxicity in athymic nude BALB/c mouse xenografted with human HCT-116 cells assessed as pathological changes in heart at 5 to 15 mg/kg, ip administered every other day and measured after 14 days by hematoxylin and eosin staining-based microscopic analysis", "type": "organism-based", "settings": "in vivo, 336 h, dose 5-15 mg/kg, time 14 day"}, "[13]": {"tested_on": "Mus musculus", "assay": "In vivo inhibition of NFkappaB activation in athymic BALB/c mouse xenografted with human HT-29 cells assessed as reduction in E-selectin gene expression in tumor at 5 to 15 mg/kg, ip administered every other day and measured after 14 days by qRT-PCR analysis", "type": "functional, organism-based", "settings": "dose 5-15 mg/kg, time 14.0 day"}, "[14]": {"assay": "Toxicity in athymic nude BALB/c mouse assessed as change in serum AST level at 5 to 15 mg/kg, ip administered every other day and measured after 14 days", "type": "organism-based", "settings": "in vivo, 336 h, dose 5-15 mg/kg, time 14 day"}, "[15]": {"tested_on": "HCT-116", "assay": "Induction of autophagy in human HCT-116 cells assessed as increase in autophagic vesicles at 1 to 10 uM incubated for 24 hrs MDC staining-based fluorescence microscopy", "type": "functional, cell-based", "settings": "dose 1-10 µM"}, "[16]": {"tested_on": "Mus musculus", "assay": "(§1) Anti-inflammatory activity in AOM/DSS-induced BALB/c mouse model inflammatory bowel disease assessed as reduction in colon length at 5 to 10 mg/kg, ip pretreated with AOM for 7 days further replaced with DSS for 7 days and repeated for 2 times followed by every 2 days compound treatment for […] starting from day 50 and measured once a week", "type": "functional, organism-based", "settings": "dose 5-10 mg/kg, time 21.0 day"}, "[17]": {"tested_on": "HT-29", "assay": "Antitumor activity against human HT-29 cells xenografted in athymic nude BALB/c mouse assessed as reduction in tumor weight at 5 to 15 mg/kg, ip administered every other day and measured every other day for 16 days", "type": "functional, organism-based", "settings": "dose 5-15 mg/kg, time 16.0 day"}, "[18]": {"tested_on": "HT-29", "assay": "Induction of cell cycle arrest in human HT-29 cells assessed as accumulation of cells at S phase at 10 uM by RNase/PI staining based flow cytometry analysis (reference value: 39.34%)", "type": "functional"}, "[19]": {"tested_on": "HCT-116", "assay": "Induction of cell cycle arrest in human HCT-116 cells assessed as accumulation of cells at G0/G1 phase at 5 uM by RNase/PI staining based flow cytometry analysis (reference value: 33.08 %)", "type": "functional"}, "[20]": {"tested_on": "Mus musculus", "assay": "as §1, with “tumor load” for “colon length”", "type": "functional, organism-based", "settings": "dose 5-10 mg/kg, time 21.0 day"}, "[21]": {"tested_on": "HT-29", "assay": "Induction of apoptosis in human HT-29 cells assessed as late apoptotic cells at 1 uM incubated for 24 hrs by Annexin V-FITC/PI staining based flow cytometric analysis (reference value: 1.56 %)", "type": "functional"}, "[22]": {"tested_on": "Mus musculus", "assay": "In vivo inhibition of NFkappaB activation in athymic BALB/c mouse xenografted with human HT-29 cells assessed as reduction in MCP-1 gene expression in tumor at 5 to 15 mg/kg, ip administered every other day and measured after 14 days by qRT-PCR analysis", "type": "functional, organism-based", "settings": "dose 5-15 mg/kg, time 14.0 day"}, "[23]": {"tested_on": "HCT-116", "assay": "Antitumor activity against human HCT-116 cells xenografted in athymic nude BALB/c mouse assessed as induction of apoptosis by measuring increase in cleaved PARP expression in tumor at 15 mg/kg, ip administered every other day and measured after 14 days by immunohistochemistry analysis", "type": "functional, organism-based", "settings": "time 14.0 day"}, "[24]": {"tested_on": "Mus musculus", "assay": "In vivo inhibition of NFkappaB activation in AOM/DSS-induced inflammatory bowel disease BALB/c mouse model assessed as inhibition of serum TNF-alpha production at 5 to 10 mg/kg, ip pretreated with AOM for 7 days further replaced with DSS for 7 days and repeated for 2 times followed by every 2 days compound treatment for […] starting from day 50 by ELISA", "type": "functional, organism-based", "settings": "dose 5-10 mg/kg, time 21.0 day"}, "[25]": {"biological_target": "T1, Nuclear factor NF-kappa-B complex (Homo sapiens) (UniProt Q00653+P19838+Q04206)", "T1 sequence (P19838 whole entry, looked up)": "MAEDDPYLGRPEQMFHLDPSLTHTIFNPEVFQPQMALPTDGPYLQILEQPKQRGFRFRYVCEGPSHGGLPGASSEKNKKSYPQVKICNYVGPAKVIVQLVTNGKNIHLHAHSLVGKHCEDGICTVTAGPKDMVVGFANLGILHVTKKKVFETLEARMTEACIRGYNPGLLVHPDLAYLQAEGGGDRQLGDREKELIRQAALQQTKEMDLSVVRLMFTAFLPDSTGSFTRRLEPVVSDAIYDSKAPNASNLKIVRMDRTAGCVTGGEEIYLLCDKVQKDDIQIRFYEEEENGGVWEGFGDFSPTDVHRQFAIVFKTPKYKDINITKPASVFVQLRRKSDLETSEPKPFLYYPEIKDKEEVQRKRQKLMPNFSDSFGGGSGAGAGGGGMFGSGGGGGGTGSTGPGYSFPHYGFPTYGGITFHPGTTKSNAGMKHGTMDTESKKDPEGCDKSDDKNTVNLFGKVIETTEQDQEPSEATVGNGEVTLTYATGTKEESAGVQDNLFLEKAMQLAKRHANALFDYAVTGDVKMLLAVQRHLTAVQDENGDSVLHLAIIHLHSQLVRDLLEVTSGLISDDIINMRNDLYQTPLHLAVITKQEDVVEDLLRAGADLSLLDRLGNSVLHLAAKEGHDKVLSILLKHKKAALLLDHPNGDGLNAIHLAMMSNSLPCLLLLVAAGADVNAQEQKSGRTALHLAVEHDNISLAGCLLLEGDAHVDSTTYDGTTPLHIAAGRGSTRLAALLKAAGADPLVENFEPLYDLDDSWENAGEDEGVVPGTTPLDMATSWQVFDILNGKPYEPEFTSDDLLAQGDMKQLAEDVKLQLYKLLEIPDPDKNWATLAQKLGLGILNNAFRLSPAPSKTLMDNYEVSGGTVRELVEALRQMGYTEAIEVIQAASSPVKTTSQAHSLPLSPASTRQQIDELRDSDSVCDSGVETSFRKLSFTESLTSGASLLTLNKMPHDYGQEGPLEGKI", "T1 sequence (Q00653 whole entry, looked up)": "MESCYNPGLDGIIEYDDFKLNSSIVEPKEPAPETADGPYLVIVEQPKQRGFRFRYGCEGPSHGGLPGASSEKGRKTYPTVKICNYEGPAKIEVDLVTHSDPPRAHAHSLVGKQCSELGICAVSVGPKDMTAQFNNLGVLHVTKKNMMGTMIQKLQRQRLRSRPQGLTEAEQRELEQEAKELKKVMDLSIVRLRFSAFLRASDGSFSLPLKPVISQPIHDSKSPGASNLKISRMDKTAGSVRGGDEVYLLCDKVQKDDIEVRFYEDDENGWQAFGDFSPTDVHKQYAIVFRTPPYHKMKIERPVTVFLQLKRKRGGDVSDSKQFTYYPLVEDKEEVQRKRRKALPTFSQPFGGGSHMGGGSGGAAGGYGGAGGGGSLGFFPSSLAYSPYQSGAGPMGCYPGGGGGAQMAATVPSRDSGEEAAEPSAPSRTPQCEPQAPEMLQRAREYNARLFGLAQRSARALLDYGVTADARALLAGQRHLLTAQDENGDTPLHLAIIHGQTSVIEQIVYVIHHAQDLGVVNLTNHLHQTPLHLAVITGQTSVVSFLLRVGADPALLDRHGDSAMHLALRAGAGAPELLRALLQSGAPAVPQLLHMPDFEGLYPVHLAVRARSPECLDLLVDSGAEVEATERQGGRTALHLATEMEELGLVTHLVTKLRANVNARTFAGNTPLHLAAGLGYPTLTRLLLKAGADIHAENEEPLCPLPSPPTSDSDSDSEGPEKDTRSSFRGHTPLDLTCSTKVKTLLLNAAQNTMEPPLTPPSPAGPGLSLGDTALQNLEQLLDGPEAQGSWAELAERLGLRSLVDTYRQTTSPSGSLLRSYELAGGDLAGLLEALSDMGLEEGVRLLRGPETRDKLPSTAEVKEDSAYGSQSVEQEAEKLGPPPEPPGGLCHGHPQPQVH", "T1 sequence (Q04206 whole entry, looked up)": "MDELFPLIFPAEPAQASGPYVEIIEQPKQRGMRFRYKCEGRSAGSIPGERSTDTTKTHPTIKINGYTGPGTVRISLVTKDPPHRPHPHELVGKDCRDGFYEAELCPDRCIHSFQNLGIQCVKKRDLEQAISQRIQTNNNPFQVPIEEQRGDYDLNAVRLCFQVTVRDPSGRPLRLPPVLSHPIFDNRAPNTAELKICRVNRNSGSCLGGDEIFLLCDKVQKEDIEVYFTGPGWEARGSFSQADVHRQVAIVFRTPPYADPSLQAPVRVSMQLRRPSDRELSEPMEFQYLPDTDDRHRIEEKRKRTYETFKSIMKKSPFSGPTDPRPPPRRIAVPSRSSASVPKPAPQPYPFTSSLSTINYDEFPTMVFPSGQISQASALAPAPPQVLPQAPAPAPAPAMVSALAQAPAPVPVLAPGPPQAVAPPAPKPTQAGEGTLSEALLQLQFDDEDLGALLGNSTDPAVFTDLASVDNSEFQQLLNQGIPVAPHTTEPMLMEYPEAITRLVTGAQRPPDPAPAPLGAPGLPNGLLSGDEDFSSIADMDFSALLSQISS", "assay": "Inhibition of TNF-alpha induced NFkappaB activation in human HCT-116 cells assessed as inhibition of p65 phosphorylation at 1 to 10 uM pretreated for 24 hrs followed by TNFalpha stimulation for 10 mins by Western blot analysis", "type": "cell-based", "settings": "dose 1-10 µM, time 1450.0 min"}, "[26]": {"biological_target": "T1, Nuclear factor NF-kappa-B complex (Homo sapiens)", "assay": "Inhibition of NFkappaB activation in HEK293T cells transfected with Flag-tagged MyD88 and kappaB luciferase/pTK-renilla reporters at 2 uM incubated for 6 hrs by Dual Luciferase Reporter Assay", "type": "cell-based", "settings": "HEK-293T"}, "[27]": {"tested_on": "HCT-116", "assay": "Induction of apoptosis in human HCT-116 cells assessed as late apoptotic cells at 5 uM preincubated with Z-VAD-FMK for 1 hr followed by compound addition and measured after 24 hrs by Annexin V-FITC/PI staining based flow cytometric analysis (reference value: 9.37 %)", "type": "functional"}, "[28]": {"tested_on": "HT-29", "assay": "Induction of cell cycle arrest in human HT-29 cells assessed as accumulation of cells at G0/G1 phase at 1 uM by RNase/PI staining based flow cytometry analysis (reference value: 50.73 %)", "type": "functional"}}, "note": "Activity calls are given as the source filed them. The rule behind the calls is not given here.", "data": [{"smiles": "C[C@@H]1CC[C@H]2[C@H](C(=O)c3c(O)c([C@@]4(O)CC[C@@H](O)[C@H]5O[C@H]54)cn(O)c3=O)[C@H](C)C=C[C@@H]2C1", "values": [{"measurement": "Activity", "setting": "[1]", "result": 46.2, "unit": "%"}, {"measurement": "Activity", "setting": "[2]", "result": 64.4, "unit": "%"}, {"measurement": "inhibition", "setting": "[3]", "result": "Active"}, {"measurement": "inhibition", "setting": "[4]", "result": "inactive"}, {"measurement": "Activity", "setting": "[5]", "result": "Active"}, {"measurement": "Activity", "setting": "[6]", "result": 0.17, "unit": "%"}, {"measurement": "Activity", "setting": "[7]", "result": 13.2, "unit": "%"}, {"measurement": "Activity", "setting": "[8]", "result": "Active"}, {"measurement": "Activity", "setting": "[9]", "result": "Active"}, {"measurement": "viability at 5 µM", "setting": "[10]", "result": 29.5, "unit": "%"}, {"measurement": "Activity", "setting": "[11]", "result": "Active"}, {"measurement": "Activity", "setting": "[12]", "result": "Non-Toxic"}, {"measurement": "inhibition", "setting": "[13]", "result": "Active"}, {"measurement": "Activity", "setting": "[14]", "result": "Non-Toxic"}, {"measurement": "Activity", "setting": "[15]", "result": "Active"}, {"measurement": "Activity", "setting": "[16]", "result": "Active"}, {"measurement": "Activity", "setting": "[17]", "result": "Active"}, {"measurement": "Activity", "setting": "[18]", "result": 26.65, "unit": "%"}, {"measurement": "Activity", "setting": "[19]", "result": 44.31, "unit": "%"}, {"measurement": "Activity", "setting": "[20]", "result": "Active"}, {"measurement": "Activity", "setting": "[21]", "result": 7.39, "unit": "%"}, {"measurement": "inhibition", "setting": "[22]", "result": "Active"}, {"measurement": "Activity", "setting": "[23]", "result": "Active"}, {"measurement": "inhibition", "setting": "[24]", "result": "Active"}, {"measurement": "inhibition", "setting": "[25]", "result": "Active"}, {"measurement": "inhibition", "setting": "[26]", "result": "Active"}, {"measurement": "Activity", "setting": "[27]", "result": 53.3, "unit": "%"}, {"measurement": "Activity", "setting": "[28]", "result": 69.17, "unit": "%"}]}]}
